4 compounds from patent US9011956B2, “Natural high-potency sweetener compositions with improved temporal profile and/or flavor profile, methods for their formulation, and uses” (The Coca-Cola Company, priority 2005, dated 2015) can be followed below.

A short description of series [1]: Sweetness linger sensory evaluation by expert panel (protocol of Example A). Type of series: in vivo, human. More on the design: key: 0=no sweetness linger; 1=very slight sweetness linger; 2=slight sweetness linger; 3=moderate sweetness linger; 4=moderately high sweetness linger; 5=high sweetness linger. On the procedure: In a particular embodiment, a panel of assessors is used to measure the reduction of sweetness linger. Briefly described, a panel of assessors (generally 8 to 12 individuals) is trained to evaluate sweetness perception and measure sweetness at several time points from when the sample is initially taken into the mouth until 3 minutes after it has been expectorated. […] A decrease in score for a time point measured after the sample has cleared the mouth indicates there has been a reduction in sweetness perception.
Generally, the method of measuring sweetness comprises taking a 10 mL sample into the mouth, holding the sample in the mouth for 5 seconds and gently swirling the sample in the mouth, rating the sweetness intensity perceived at 5 seconds, expectorating the sample (without swallowing following expectorating the sample), rinsing with one mouthful of water (e.g., vigorously moving water in mouth as if with mouth wash) and expectorating the rinse water, rating the sweetness intensity perceived immediately upon expectorating the rinse water, waiting 45 seconds and, while waiting those 45 seconds, identifying the time of maximum perceived sweetness intensity and rating the sweetness intensity at that time (moving the mouth normally and swallowing as needed), rating the sweetness intensity after another 10 seconds, rating the sweetness intensity after another 60 seconds (cumulative 120 seconds after rinse), and rating the sweetness intensity after still another 60 seconds (cumulative 180 seconds after rinse). Between samples take a 5 minute break, rinsing well with water to clear the mouth.
(§1) An exemplary method of sensory evaluation is provided in the following protocol, similar to that described hereinabove. In this test protocol, none of the samples were swallowed. All samples were expectorated and the mouth was rinsed with water after the tasting. In step 1, the 10% sucrose control sample was tasted by distributing ca. 10 mL of sample quickly throughout the oral cavity, wherein the maximal “Sweetness Intensity” was measured. This intensity is defined as a 10 on a 0-15 scale where 0 is defined as no perceptible sweetness and 15, the sweetness of 15% sucrose. Immediately upon sensing maximal sweetness, the sample was expectorated, the mouth was rinsed with water and the rate of sweetness decay (“Sweetness Linger”) was measured, where attention was focused on the sweetness 3-4 min after the water rinse. The sweetness linger was rated by a panel of experts in the sensory evaluation of foods and beverages using the following scale: 0=no sweetness linger, 1=very slight sweetness linger, 2=slight sweetness linger, 3=moderate sweetness linger, 4=moderately high sweetness linger, 5=high sweetness linger. After sample tasting was complete, a salty oyster cracker was chewed followed by a water rinse, and at least 5 minutes followed before tasting the next sample.
The “Sweetness Linger” rating for sucrose observed by this protocol was defined as 0. Experimental samples were tasted by the same protocol, always allowing sufficient time between samples to ensure re-equilibration of the sensory system. Re-tasting of control samples during the course of the experiment was allowed and encouraged.
The comparison taste test was performed between two controls and addition of sweet taste improving additive on the onset and/or sweetness linger.
Where there are ranges provided in the examples, a number of beverages comprising the NHPS, such as rebaudioside-A (REBA), were made 5-7 levels from the top to the bottom range, using a 1:1 dilution of the corresponding sweet taste improving compositions. The sweetness linger rating reported was the most sugar-like in sweetness linger (the lowest numerical value) attained of all the samples (i.e., the shortest sweetness linger). The tasting protocol and sensory scores described in the exemplary protocol of Example A were used in the Examples of Set B. […]

Series [2] is described as follows: Sweetness level as sucrose equivalent. Type of series: in vivo, human. Here is the method:
as §1

Series [3] is classed as physicochemical. On the procedure: A solution of rebaudioside A (>97% pure by HPLC) was prepared in double distilled water (12.5 gm in 50 mL, 25% concentration) by stirring the mixture at 40° C. for 5 minutes. An amorphous form of rebaudioside A was formed by immediately using the clear solution for spray drying with the Lab-Plant spray drier SD-04 instrument (Lab-Plant Ltd., West Yorkshire, U.K.). The solution was fed through the feed pump into the nozzle atomizer which atomized it into a spray of droplets with the help of a constant flow of nitrogen/air. […] This dry powder (11-12 g, H2O 6.74%) was discharged continuously from the drying chamber and was collected in a bottle.

Take “mono-ammonium glycyrrhizic acid salt hydrate”: in series [1] (control: 375 mg in one liter of carbon-treated water), the sweetness linger worked out at 5. The sweetness level in series [2] (375 mg in one liter of carbon-treated water) came to 4 % sucrose equivalent.

Regarding `OC[C@H]1O[C@@](CO)(O[C@H]2O[C@H](CO)[C@@H](O)[C@H](O)[C@H]2O)[C@@H](O)[C@@H]1O` [sugar, sucrose], the sweetness linger rating in series [1] (control: 8 g of sugar in 100 ml of citrate buffer) worked out at 0; in series [1] (control: 10 g in 100 ml of carbon treated water) it was 0; in series [1] (control: 10 g of sugar in 100 ml carbon treated water, phosphoric acid to pH 2.4-2.5), 0.

Regarding rebaudioside A [Form 4], in series [3], the “solubility in water at room temperature” value was above 35.0%.

rebaudioside A: the sweetness linger rating in series [1] (control: 400 ppm REBA in citric acid/potassium citrate composition equivalent to diet lemon-lime beverage) turned out to be 5; in series [1] (control: 500 ppm REBA in carbon-treated water, phosphoric acid to pH 2.4-2.5) it was 5. Moreover, the “sucrose equivalent of sweetness” value in series [2] (180 ppm REBA) came out at 5 % sucrose; in series [2] (400 ppm REBA in citric acid/potassium citrate composition) it was 8 g sucrose.
